For 13 molecules, Ki results are on record in patent publication US11034698B2, “Pyrazolo[ 1,5a]pyrimidine derivatives as IRAK4 modulators” (priority 2017, dated 2021).

The target in one assay is human IRAK4 (Homo sapiens (Human), UniProt Q9NWZ3). In words: IRAK4 kinase inhibition, Transcreener fluorescence polarization (ADP). Format: biochemical.
human IRAK4, sequence (Q9NWZ3 whole entry): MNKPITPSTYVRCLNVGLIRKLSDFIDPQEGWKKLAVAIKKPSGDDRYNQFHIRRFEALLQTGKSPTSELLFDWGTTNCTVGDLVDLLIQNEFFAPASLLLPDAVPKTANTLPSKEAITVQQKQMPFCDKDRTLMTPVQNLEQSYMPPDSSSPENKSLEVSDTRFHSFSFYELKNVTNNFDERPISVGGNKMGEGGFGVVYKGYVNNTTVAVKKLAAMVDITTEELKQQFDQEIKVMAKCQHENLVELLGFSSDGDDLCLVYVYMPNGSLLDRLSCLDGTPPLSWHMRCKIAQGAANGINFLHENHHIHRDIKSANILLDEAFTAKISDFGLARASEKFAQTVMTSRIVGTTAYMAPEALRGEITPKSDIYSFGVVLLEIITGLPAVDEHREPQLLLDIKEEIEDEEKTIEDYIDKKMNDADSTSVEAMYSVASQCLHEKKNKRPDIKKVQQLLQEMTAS
Conditions: not given
A digest of the protocol:
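The enzyme was full-length human IRAK4 with an N-terminal His6 tag, expressed in insect cells. Kinase activity was read as ADP product by Transcreener fluorescence polarization.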
A general note: In fluorescence polarisation assays a small probe gives low polarisation when free and higher when bound to something large.
Consider `C[C@@H]1C[C@@H]2CN(c3cc4c(cc3NC(=O)c3cnn5cccnc35)CN(C[C@@H](F)C(C)(C)O)C4=O)CCN2C1` (single isomer, unassigned) [Example 111], for which the Ki (in general, the dissociation constant of the complex between target and ligand, obtained from inhibition or displacement) came to 9.9 nM.
On the same count and under the same terms, with `CCN1C[C@@H](COc2cc3c(cc2NC(=O)c2cnn4cccnc24)CC(C)(C)O3)CC1=O` (single isomer, unassigned) [Example 23] the figure was 250 nM; with `CC1(C)Cc2cc(NC(=O)c3cnn4cccnc34)c(OC[C@@H]3C[C@@H]4NCCO[C@H]4C3)cc2O1` (single isomer, unassigned) [Example 31], 60 nM; with `CC(C)(O)[C@H](F)CN1Cc2cc(NC(=O)c3cnn4cccnc34)c(O[C@H]3CCOC3)cc2C1=O` (single isomer, unassigned) [Example 84], 0.49 nM.

The assay is the same for the next values; noted with them: recombinant full-length His6-IRAK4 1.25 nM; 125 uM ATP; 125 uM peptide; 90 min; ATP Km 642 uM; read-out: IRAK4 Ki.
Take `Cc1oncc1CN1CCN(c2cc3c(cc2NC(=O)c2cnn4cccnc24)CC(C)(C)O3)CC1` [Example 12, N-(2,2-Dimethyl-6-(4-((5-methylisoxazol-4-yl)methyl)piperazin-1-yl)-2,3-dihydrobenzofuran-5-yl)pyrazolo[1,5-a]pyrimidine-3-carboxamide]: the Ki amounted to 5.2 nM.
Still for that read-out and setting: to `CC1(C)Cc2cc(NC(=O)c3cnn4cccnc34)c(N3CCN(Cc4[nH]cnc4Cl)CC3)cc2O1` [Example 10, N-(6-(4-((4-Chloro-1H-imidazol-5-yl)methyl)piperazin-1-yl)-2,2-dimethyl-2,3-dihydrobenzofuran-5-yl)pyrazolo[1,5-a]pyrimidine-3-carboxamide] belongs 2.3 nM; to `Cn1ccc2cc(NC(=O)c3cnn4cccnc34)c(N3CCOCC3)cc2c1=O` [Example 152, N-(2-Methyl-7-morpholino-1-oxo-1,2-dihydroisoquinolin-6-yl)pyrazolo[1,5-a]pyrimidine-3-carboxamide], 210 nM; to `CC(C)(O)[C@H](F)CN1Cc2cc(NC(=O)c3cnn4cccnc34)c(OC[C@@H]3CNC(=O)C3)cc2C1=O` [Example 71, N-[2-[(2R)-2-Fluoro-3-hydroxy-3-methyl-butyl]-1-oxo-6-[[(3S)-5-oxopyrrolidin-3-yl]methoxy]isoindolin-5-yl]pyrazolo[1,5-a]pyrimidine-3-carboxamide], 3.2 nM.
Still for that read-out and setting: to `COc1cc2c(cc1NC(=O)c1cnn3ccc(N4C[C@@H](N)CC(F)(F)C4)nc13)CC(C)(C)O2` [Example 36, (S)-5-(5-Amino-3,3-difluoropiperidin-1-yl)-N-(6-methoxy-2,2-dimethyl-2,3-dihydrobenzofuran-5-yl)pyrazolo[1,5-a]pyrimidine-3-carboxamide] belongs 14 nM; to `CC1(C)Cc2cc(NC(=O)c3cnn4cccnc34)c(O[C@H]3CN(CC(N)=O)C[C@@H]3N)cc2O1` [Example 19, N-(6-(((3S,4S)-4-Amino-1-(2-amino-2-oxoethyl)pyrrolidin-3-yl)oxy)-2,2-dimethyl-2,3-dihydrobenzofuran-5-yl)pyrazolo[1,5-a]pyrimidine-3-carboxamide], 53 nM; to `CC(C)Oc1cc2c(cc1NC(=O)c1cnn3cccnc13)CN([C@H]1CCOC1)C2=O` [Example 68, (S)-N-(6-Isopropoxy-1-oxo-2-(tetrahydrofuran-3-yl)isoindolin-5-yl)pyrazolo[1,5-a]pyrimidine-3-carboxamide], 2.5 nM.
The same measure, in the same setting: with `CC(C)Oc1cc2c(cc1NC(=O)c1cnn3cccnc13)CN(C[C@@H](F)C(C)(C)O)C2=O` [Example 78, N-[2-[(2R)-2-Fluoro-3-hydroxy-3-methyl-butyl]-6-isopropoxy-1-oxo-isoindolin-5-yl]pyrazolo[1,5-a]pyrimidine-3-carboxamide] the figure was 0.17 nM; with `CC(C)(O)[C@H](F)CN1Cc2cc(NC(=O)c3cnn4cccnc34)c(O[C@H]3C[C@@H](Cl)C3)cc2C1=O` [Example 64, N-[6-(3-Chlorocyclobutoxy)-2-[(2R)-2-fluoro-3-hydroxy-3-methyl-butyl]-1-oxo-isoindolin-5-yl]pyrazolo[1,5-a]pyrimidine-3-carboxamide], 0.51 nM.
